Data taken from the supplement of paper PMC12076712.

Key:
Assay in all cases: pIC50, kinobeads binding competition
Conditions in all cases: cell material: Jurkat lysate
FGR = FGR (UniProt P09769)
UniProt P27448 = target: UniProt P27448
UniProt Q99683 = target: T1, UniProt Q99683
T1 sequence (whole entry): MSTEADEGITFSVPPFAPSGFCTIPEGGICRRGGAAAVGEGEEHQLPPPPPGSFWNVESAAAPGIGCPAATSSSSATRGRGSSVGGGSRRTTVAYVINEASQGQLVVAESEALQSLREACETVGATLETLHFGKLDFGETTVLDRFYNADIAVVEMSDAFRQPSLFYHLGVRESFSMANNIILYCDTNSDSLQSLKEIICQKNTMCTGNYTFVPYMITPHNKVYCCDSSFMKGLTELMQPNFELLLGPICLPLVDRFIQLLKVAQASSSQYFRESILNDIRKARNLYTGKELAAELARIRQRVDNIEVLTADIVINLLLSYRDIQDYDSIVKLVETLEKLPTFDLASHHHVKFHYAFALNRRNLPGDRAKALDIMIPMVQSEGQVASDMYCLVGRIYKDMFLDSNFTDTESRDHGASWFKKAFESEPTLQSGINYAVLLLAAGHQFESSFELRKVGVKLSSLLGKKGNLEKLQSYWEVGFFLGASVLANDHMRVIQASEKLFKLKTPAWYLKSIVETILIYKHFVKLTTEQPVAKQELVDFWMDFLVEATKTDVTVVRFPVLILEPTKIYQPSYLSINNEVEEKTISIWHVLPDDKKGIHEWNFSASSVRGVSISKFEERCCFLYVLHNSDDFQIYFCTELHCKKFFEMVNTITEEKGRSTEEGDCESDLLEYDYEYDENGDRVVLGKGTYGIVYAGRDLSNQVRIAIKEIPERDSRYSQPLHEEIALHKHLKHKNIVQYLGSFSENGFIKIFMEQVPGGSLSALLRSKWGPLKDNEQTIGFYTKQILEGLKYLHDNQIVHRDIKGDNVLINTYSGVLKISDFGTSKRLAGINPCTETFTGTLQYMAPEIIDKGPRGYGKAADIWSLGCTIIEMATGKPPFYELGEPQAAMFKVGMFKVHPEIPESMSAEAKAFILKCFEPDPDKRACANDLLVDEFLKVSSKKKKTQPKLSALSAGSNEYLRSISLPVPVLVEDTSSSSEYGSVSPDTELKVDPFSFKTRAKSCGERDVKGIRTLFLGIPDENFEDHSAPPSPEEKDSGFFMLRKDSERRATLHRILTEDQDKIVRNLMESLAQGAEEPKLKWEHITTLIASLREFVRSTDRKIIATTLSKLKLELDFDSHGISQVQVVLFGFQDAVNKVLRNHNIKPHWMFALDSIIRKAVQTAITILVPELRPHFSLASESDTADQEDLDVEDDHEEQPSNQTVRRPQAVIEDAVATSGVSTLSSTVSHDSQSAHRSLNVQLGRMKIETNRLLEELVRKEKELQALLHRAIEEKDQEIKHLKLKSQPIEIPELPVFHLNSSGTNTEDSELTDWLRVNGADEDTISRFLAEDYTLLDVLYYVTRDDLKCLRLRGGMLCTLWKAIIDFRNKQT

UniProt Q99759 = target: T2, UniProt Q99759
T2 sequence (whole entry): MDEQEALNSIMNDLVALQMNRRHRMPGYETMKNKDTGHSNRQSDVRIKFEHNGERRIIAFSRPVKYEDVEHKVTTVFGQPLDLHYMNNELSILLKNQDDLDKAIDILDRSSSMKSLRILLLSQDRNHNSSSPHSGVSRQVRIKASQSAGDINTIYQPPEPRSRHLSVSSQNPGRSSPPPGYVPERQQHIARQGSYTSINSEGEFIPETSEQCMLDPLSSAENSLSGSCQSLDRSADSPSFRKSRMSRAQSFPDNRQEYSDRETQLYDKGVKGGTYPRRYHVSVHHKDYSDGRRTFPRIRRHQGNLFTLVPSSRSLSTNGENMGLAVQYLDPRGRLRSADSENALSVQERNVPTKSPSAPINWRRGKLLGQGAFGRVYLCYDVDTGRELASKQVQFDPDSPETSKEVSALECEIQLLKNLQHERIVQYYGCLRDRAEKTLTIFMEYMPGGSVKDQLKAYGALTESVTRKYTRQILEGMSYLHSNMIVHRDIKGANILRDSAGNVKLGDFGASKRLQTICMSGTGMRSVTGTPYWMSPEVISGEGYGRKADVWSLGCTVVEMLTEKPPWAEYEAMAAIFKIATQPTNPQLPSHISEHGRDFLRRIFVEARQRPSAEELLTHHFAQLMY

BRSK1 = target: T3, BRSK1 (UniProt Q8TDC3)
T3 sequence (whole entry): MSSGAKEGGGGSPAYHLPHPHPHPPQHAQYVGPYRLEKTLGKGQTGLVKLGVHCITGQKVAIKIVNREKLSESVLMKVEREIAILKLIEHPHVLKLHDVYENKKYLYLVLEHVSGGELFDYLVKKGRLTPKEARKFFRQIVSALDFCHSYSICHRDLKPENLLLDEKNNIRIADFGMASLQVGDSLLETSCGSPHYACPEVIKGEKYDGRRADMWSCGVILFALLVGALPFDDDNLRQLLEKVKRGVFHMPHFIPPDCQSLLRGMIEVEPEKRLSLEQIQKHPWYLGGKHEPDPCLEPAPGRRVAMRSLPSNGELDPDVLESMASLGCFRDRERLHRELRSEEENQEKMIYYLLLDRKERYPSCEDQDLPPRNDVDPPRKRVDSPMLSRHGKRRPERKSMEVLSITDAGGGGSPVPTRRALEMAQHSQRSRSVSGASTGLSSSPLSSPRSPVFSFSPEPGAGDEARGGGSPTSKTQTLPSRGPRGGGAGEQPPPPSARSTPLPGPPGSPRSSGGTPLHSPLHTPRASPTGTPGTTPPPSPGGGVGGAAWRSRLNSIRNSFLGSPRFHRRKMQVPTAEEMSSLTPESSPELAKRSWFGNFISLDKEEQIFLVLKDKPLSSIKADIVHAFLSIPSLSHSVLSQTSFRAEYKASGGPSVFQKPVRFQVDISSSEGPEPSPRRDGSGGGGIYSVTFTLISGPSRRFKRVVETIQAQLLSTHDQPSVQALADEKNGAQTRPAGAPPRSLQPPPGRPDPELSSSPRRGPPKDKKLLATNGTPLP

Sequence of UniProt P27448 (P27448 whole entry, looked up): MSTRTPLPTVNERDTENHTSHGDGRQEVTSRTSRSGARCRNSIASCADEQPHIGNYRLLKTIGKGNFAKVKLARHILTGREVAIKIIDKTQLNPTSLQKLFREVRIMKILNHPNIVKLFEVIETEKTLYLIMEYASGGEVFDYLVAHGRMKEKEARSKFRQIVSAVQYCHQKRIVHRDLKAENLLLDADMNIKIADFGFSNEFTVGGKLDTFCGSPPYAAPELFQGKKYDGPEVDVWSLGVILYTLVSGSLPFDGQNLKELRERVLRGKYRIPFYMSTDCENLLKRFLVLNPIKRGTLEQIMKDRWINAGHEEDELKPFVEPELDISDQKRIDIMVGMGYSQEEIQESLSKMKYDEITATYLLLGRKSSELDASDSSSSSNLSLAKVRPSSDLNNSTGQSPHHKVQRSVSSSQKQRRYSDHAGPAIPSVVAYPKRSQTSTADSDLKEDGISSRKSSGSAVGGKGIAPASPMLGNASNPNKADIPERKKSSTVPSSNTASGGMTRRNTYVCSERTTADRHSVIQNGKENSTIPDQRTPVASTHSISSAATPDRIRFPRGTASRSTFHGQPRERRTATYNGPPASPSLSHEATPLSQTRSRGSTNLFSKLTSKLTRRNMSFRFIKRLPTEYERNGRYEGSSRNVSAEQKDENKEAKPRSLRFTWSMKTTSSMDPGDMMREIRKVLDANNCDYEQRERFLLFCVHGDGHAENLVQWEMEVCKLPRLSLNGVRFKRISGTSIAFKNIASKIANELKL
Sequence of FGR (P09769 whole entry, looked up): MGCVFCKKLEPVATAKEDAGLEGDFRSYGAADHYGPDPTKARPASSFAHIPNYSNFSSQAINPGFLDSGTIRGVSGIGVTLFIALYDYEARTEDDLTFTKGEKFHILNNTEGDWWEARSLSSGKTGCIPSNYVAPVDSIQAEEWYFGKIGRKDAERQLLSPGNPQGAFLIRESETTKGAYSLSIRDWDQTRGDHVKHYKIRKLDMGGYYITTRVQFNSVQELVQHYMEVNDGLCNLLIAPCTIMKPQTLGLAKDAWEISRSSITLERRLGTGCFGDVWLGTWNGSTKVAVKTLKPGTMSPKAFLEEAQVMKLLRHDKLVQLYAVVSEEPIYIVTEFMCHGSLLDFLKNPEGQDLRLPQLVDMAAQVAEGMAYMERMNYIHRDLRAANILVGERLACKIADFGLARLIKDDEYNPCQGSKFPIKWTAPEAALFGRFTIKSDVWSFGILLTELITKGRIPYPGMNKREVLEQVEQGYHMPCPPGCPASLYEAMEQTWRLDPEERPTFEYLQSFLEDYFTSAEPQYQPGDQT

pIC50 (FGR): < 4.52
pIC50 (UniProt P27448): < 4.52
pIC50 (UniProt Q99683): < 4.52
pIC50 (UniProt Q99759): < 4.52
pIC50 (BRSK1): < 4.52
Structure (SMILES): CCc1cnn2c(NCc3ccc[n+]([O-])c3)cc(N3CCCC[C@H]3CCO)nc12 [dinaciclib]
